The results in this text go back to PubChem BioAssay (NCI).

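Exposure lasted 48 hours, with cells grown in 96-well plates and compounds tested at five concentrations. At the GI50, growth is halved. TGI marks complete inhibition of growth.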 Bounds are passed on as bounds.

Holding throughout (experiment): NCI tumour cell line growth inhibition, 48 h
Assay [1] deals with UO-31 renal.
Assay [2] deals with UACC-257 melanoma.
Assay [3] has as its system MDA-N.
Assay [4] relates to SN12C renal.
Assay [5] has as its system HCT-116 colon.
In assay [6] the test system is HCC-2998 colon.
The subject of assay [7] is SF-268 CNS.
Assay [8] relates to SK-MEL-5 melanoma.
Assay [9] relates to MALME-3M melanoma.
In assay [10] the test system is SK-MEL-2 melanoma.

For the molecule `CN(C)CC1CCC(CN(C)C)C1=O` (stereo unspecified), the TGI in [1] turned out to be 14 µM; in assay [2], 17.6 µM; in [3], 3.85 µM; in assay [4], 13.4 µM; in assay [5], 5.23 µM; in assay [6], 32.9 µM. Besides, the TGI in assay [7] turned out to be 42.4 µM; in [8], 15.9 µM; in [9], 3.67 µM; in assay [10], 21.6 µM.
In the case of `CO[C@@H]1O[C@H](C(=O)c2ccccc2)[C@H]2OC(C)(C)O[C@@H]12`, the TGI in assay [1], in assay [2], in assay [3], in [4], in assay [5] and in [6] was over 100 µM throughout. Also, the TGI in assay [7], in [8] and in assay [10] was over 100 µM throughout.
With `CC(NC(=O)N(C)C)NC(=O)N(C)C`, the TGI in assay [1], in assay [2], in [3], in assay [4], in assay [5] and in assay [6] was over 10 µM throughout. Moreover, the TGI in [7], in [8], in [9] and in [10] was over 10 µM in each case.
As for `CCOC(=O)c1cn2c(n1)sc1cc(Cl)cc(Cl)c12`, the TGI in [1], in [2], in assay [3], in assay [4], in assay [5] and in [6] was over 100 µM throughout. The TGI in assay [7], in [8], in assay [9] and in assay [10] was over 100 µM each time.
As to `COc1ccc(C2c3cc4c(cc3OC(N3CCOCC3)C2C)OCO4)c(OC)c1OC` (stereo unspecified), the TGI is 35.1 µM in assay [1]; 82.2 µM in [2]; 8.42 µM in assay [3]; over 100 µM in assay [4]; 22.3 µM in assay [5]; 25 µM in [6]. Moreover, the TGI amounted to 79.8 µM in assay [7], 23.1 µM in [8] and 36.2 µM in assay [10].
Regarding `CC1(C)[C@H]2CC[C@@]13C(=O)N1C(=O)O[C@@H]([C@H]1Cl)C(Cl)(COCc1ccccc1)C(=O)OCCO[C@H]3C2` (stereo partly specified), the TGI in assay [1], in [2], in [3], in assay [5], in assay [6] and in [7] was over 100 µM each time. In addition, the TGI in [8], in [9] and in assay [10] was over 100 µM throughout.
For `C=C1c2nc3ccccc3n2C=C(c2ccc(Cl)cc2)N1c1ccc(OC)cc1`, the TGI in [1] turned out to be 19.4 µM; in [2], 30.5 µM; in [3], 45.7 µM; in assay [4] it was 60 µM; in assay [5] it was 21.6 µM; in assay [6], 28.3 µM. Moreover, the TGI in [8] was found to be 46.2 µM; in assay [9], 13.3 µM; in [10], 66.5 µM.
As to `CCCCn1c(-c2ccc([N+](=O)[O-])cc2)cs/c1=N/N=C1\C(=O)Nc2ccc(Br)cc21`, the TGI turned out to be 34.2 µM in assay [1]; 47.2 µM in [2]; 45.2 µM in [3]; 11.4 µM in assay [4]; 29.3 µM in assay [5]; 34.7 µM in assay [6]. Besides, the values for the TGI in [7], in assay [8] and in assay [9] were over 100 µM, 27.8 µM and over 100 µM, respectively.
On to `O=c1[nH]nc(Cc2ccccc2)n1/N=C/c1ccncc1`, for which the TGI in assay [1], in [2], in assay [3], in assay [4], in assay [5] and in assay [6] was over 100 µM each time. The TGI in assay [7], in assay [8] and in [9] was over 100 µM in each case.
As for `CCON1CC(C(=O)OC)=C(O)C1=O`, the TGI in [1], in assay [2], in assay [3], in assay [5], in [6] and in assay [7] was over 100 µM throughout. Also, the TGI in assay [8], in [9] and in assay [10] was over 100 µM each time.
Take `O=c1cc(/C=C/c2ccccc2)[nH]c2cc3c(cc12)OCO3`: the TGI in assay [1] is 20.9 µM; in assay [2], 97.7 µM; in assay [3] it was 6.23 µM; in assay [4] it was 23.9 µM; in assay [5] it was 13.4 µM; in assay [6] it was 7.47 µM. The TGI in [7] stood at 30.4 µM; in [8], 12.3 µM; in [10] it was 9.11 µM. Besides, the GI50 in assay [7] is 7.12 µM; in assay [8], 2.17 µM.
Consider `COC(=O)C1(Cc2ccc3c(c2)CCC3)Cc2ccccc2C1`, for which the TGI in assay [1], in assay [2], in assay [3], in assay [4], in assay [5] and in [6] was over 100 µM in each case. Further, the results for the TGI in assay [7], in assay [9] and in [10] were over 100 µM, over 100 µM and 72 µM, respectively.
Turning to `COC1CC(OC2CCC3(C)C(=CCC4C3C(OC(C)=O)C(OC(=O)CC(C)C)C3(C)C(C(C)=O)CCC43O)C2)OC(C)C1OC1CC(OC)C(OC2CC(OC)C(OC3OC(C)C(OC4OC(CO)C(O)C(O)C4O)C(OC)C3O)C(C)O2)C(C)O1` (stereo unspecified), the TGI in assay [1], in assay [2], in assay [3], in assay [4], in assay [5] and in assay [6] was over 75 µM in each case. Moreover, the TGI in assay [7], in [8] and in assay [10] was over 75 µM each time.
Take `O=C1CSC2=NC3=C(COC/C3=C\c3ccc(Br)cc3)C(c3ccc(Br)cc3)N12` (stereo unspecified): the TGI in [1], in assay [2], in assay [3], in [4], in [5] and in [6] was over 100 µM each time. The TGI in [7], in assay [8] and in assay [10] was over 100 µM each time.
